Experimental data: patent US9457084B2, “Use of EP4 receptor antagonists in the treatment of IL-23 mediated diseases” (RAQUALIA PHARMA INC., priority 2010, dated 2016)
“Also recorded” adds a separate entry of the source.

What was measured:
rat = conditions: cited from earlier work
mice [1] = conditions: cited from earlier work
mice [2] = conditions: animal models; NPL 19 / NPL 21; cited from earlier work
Balb/c male mice = test: DSS model (DSS-induced colitis); assay type: in vivo, mouse; conditions: 2.5% DSS for 7 days; 3 or 30 mg/kg orally for 7 days; evaluated day 11
Method: Eight weeks-old Balb/c male mice were used in the study. Mice were allocated to four groups; normal control group, disease control group receiving vehicle, and two disease groups receiving different dose of Compound B. Colitis was induced by drinking 2.5% DSS (average molecular weight of 5,000) dissolved in water for 7 days. Compound B in 0.5% methyl cellulose solution (at a dose of 3 or 30 mg/kg) was orally administered for 7 days. The mice were sacrificed on day 11 and the colon was harvested for the evaluation. Colon length, colon weight, and histology score were analyzed. Histology score was determined as follows; 0=no signs of damage; 1=moderate inflammation; 2=severe inflammation.

mouse CD11c (+) cells = test: IL-23 production in CD11c dendritic cells (ELISA); assay type: cell-based; conditions: 10, 100, or 1000 nM; antibody to CD40, 36 hours; supernatant ELISA
Method: CD11c dendritic cells (DCs) from the spleens of C57BL/6 mice were purified by auto-magnetic activated cell sorting. The DCs were cultured in a 96-well plate at a density of 6×10^5 cells per well in the presence of 10 microgram/mL antibody to CD40 for 36 hours. Compounds listed in FIG. 1, that is, Compound A (3-[2-(4-{2-ethyl-4,6-dimethyl-1H-imidazo[4,5-c]pyridin-1-yl}phenyl)ethyl]-1-[(4-methylbenzene)sulfonyl]urea) and Compound B (4-[(1S)-1-({[5-chloro-2-(3-fluorophenoxy)pyridin-3-yl]carbonyl}amino)ethyl]benzoic acid) were added at the beginning of incubation at a dose of 10, 100, or 1000 nM. The supernatant collected at the end of culture was measured by ELISA for IL-23.

C57BL/6 male mice = test: Allergic contact dermatitis and psoriasis model (picryl chloride, ear swelling); assay type: in vivo, mouse
Method: Eight weeks-old C57BL/6 male mice were used in the study. Mice were sensitized with 0.1 mL of 7% picryl chloride-ethanol on shaved abdominal skin on day O, Seven days later, the mice were treated with 0.02 mL of 1% picryl chloride-olive oil on both sides of the ear by painting. Ear thickness was measured using a thickness gage before the treatment, and 24 and 48 hours after the treatment, and the difference of ear thickness was used as a parameter of ear swelling. Compound B suspended in 0.5% methyl cellulose solution (at a dose of 3 or 30 mg/kg) was administered orally either during the entire experimental period (days 0 to 11) or elicitation (E) period (days 8 to 10).

[3] = NPL 27; cited from earlier work
[4] = NPL 26; cited from earlier work

Row | SMILES | colitis score (Balb/c male mice) | colon weight/length (Balb/c male mice) | ear swelling (C57BL/6 male mice; treatment period not stated) | also measured
1 | CC(C(=O)Nc1cc(C#N)ccc1CCCC(=O)O)c1ccc(F)c2ccccc12 (centres unmarked) [AE3-208] |  |  |  | effect on DSS-induced colitis (rat): aggravated; effect on allergic contact dermatitis (mice [1]; animal models, NPL 19): ameliorate; efficacy on the development (sensitization) of allergic contact dermatitis (mice [1]; prophylactic (sensitization), NPL 25): potent inhibitory efficacy; efficacy by therapeutic treatment in allergic contact dermatitis (mice [1]; therapeutic treatment, NPL 25): failed to show the efficacy; effect on MS (mice [2]): treat MS; also recorded: ameliorate
2 | CCc1nc2c(C)nc(C)cc2n1-c1ccc(CCNC(=O)NS(=O)(=O)c2ccc(C)cc2)cc1 [Compound A, 3-[2-(4-{2-ethyl-4,6-dimethyl-1H-imidazo[4,5-c]pyridin-1-yl}phenyl)ethyl]-1-[(4-methylbenzene)sulfonyl]urea] | Dose-dependent reduction | Dose-dependent reduction | dose-dependent reduction | inhibition of IL-23 production (mouse CD11c (+) cells): dose-dependent inhibition
3 | C[C@H](NC(=O)c1cc(Cl)cnc1Oc1cccc(F)c1)c1ccc(C(=O)O)cc1 [Compound B, 4-[(1S)-1-({[5-chloro-2-(3-fluorophenoxy)pyridin-3-yl]carbonyl}amino)ethyl]benzoic acid] | restored | restored |  | inhibition of IL-23 production (mouse CD11c (+) cells): dose-dependent inhibition; ear swelling (C57BL/6 male mice; 3 or 30 mg/kg orally during elicitation (E) period (days 8 to 10)): significantly reduced; ear swelling (C57BL/6 male mice; 3 or 30 mg/kg orally during entire experimental period (days 0 to 11)): significantly reduced; maximum efficacy on ear swelling compared with prednisolone (Pred) (C57BL/6 male mice; mouse, in vivo): equal to that of prednisolone
4 | C[C@H](NC(=O)c1cc(Cl)cnc1COc1cccc(Cl)c1)c1ccc(C(=O)O)cc1 [Compound C, 4-{(1S)-1-[({5-chloro-2-[(3-chlorophenoxy)methyl]pyridin-3-yl}carbonyl)amino]ethyl}benzoic acid] | Dose-dependent reduction | Dose-dependent reduction | dose-dependent reduction | 
5 | COc1ccc(-c2ccc(OCc3cc(C(=O)NS(=O)(=O)c4ccccc4C)oc3C)cc2)nc1 [Compound D, 4-((4-(5-methoxypyridin-2-yl)phenoxy)methyl)-5-methyl-N-(o-tolylsulfonyl)furan-2-carboxamide] | Dose-dependent reduction | Dose-dependent reduction | dose-dependent reduction | 
6 | Cc1sc(C)c(C(=O)NC2(c3ccc(C(=O)O)cc3)CC2)c1Cc1ccc(C(F)(F)F)cc1 [Compound E, 4-{1-[({2,5-dimethyl-4-[4-(trifluoromethyl)benzyl]-3-thienyl}carbonyl)amino]cyclopropyl}benzoic acid] | Dose-dependent reduction | Dose-dependent reduction | dose-dependent reduction | 
7 | COc1ccc2c(c1)c(CC(=O)O)c(C)n2C(=O)c1ccc(Cl)cc1 [indomethacin] |  |  |  | effect on allergic contact dermatitis [3]: worse; effect on DSS-induced colitis [4]: aggravated
